Test results taken from PubChem BioAssay AID179 (DTP/NCI, 2004).
Values joined by “and” are separate entries in the source; they are usually repeats but may differ in a detail not shown here. Equal entries are not always repeated. Active and inactive are the calls of the source.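 Rule for the calls: active = compounds giving half or more protection of infected cells from virus-caused growth loss, again on retest; inactive = the rest.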 Where a SMILES comes first, the peptide text is derived from it. Bridges are numbered along the chain shown (N, C = ends). The star is where a group is joined. Cbz = O=C(OCc1ccccc1)*; Boc = CC(C)(C)OC(=O)*; OcHex = C1CCC(O*)CC1

Test system: CEM cells HIV-1 protection, formazan growth assay
Test: NCI AIDS Antiviral Assay
Details: for IC50: measured here: growth of uninfected CEM cells
How it was run: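 Human CEM cells, uninfected and HIV-1-infected, exposed to five drug concentrations; growth measured by soluble formazan assay and scored as percent protection from infection, with protecting compounds retested.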

Compound | EC50 | IC50 | outcome
O=C1OC2CCCC1O2 (stereo not given) | > 200 µM | > 200 µM | 
c1cc(-c2ccc(-c3ccc(-c4ccc(-c5cccc6nsnc56)[nH]4)c4nsnc34)[nH]2)c2nsnc2c1 | > 100 µM | > 100 µM | 
O=C(O)c1cc(C(=O)Nc2ccc(C3=NCCN3)cc2)c(C(=O)O)cc1C(=O)Nc1ccc(C2=NCCN2)cc1 | > 200 µM | > 200 µM | 
[N-]=[N+]=NC1=CC(=O)c2cccc3cccc1c23 | > 75.9 µM | 6.92 µM | 
O=c1[nH]c(F)nc2c1ncn2C1OC(CO)C(O)C1O (stereo not given) | > 200 µM | > 200 µM | 
N#CC(C(=O)CCC(=O)Nc1cccc(C(F)(F)F)c1)c1ccc(Cl)cc1 (stereo not given) |  |  | inactive
COC(=O)CCC1=NOC(CC2CC(CCC(=O)OC)=NO2)C1 (stereo not given) |  |  | inactive
CC1=Nc2ccc([N+](=O)[O-])cc2N=C(C)C1 | > 200 µM | > 200 µM and 126 µM | 
CC1(C)CSCC(C)(C)C2(C=CC=CC=N2)C1=O (stereo not given) | > 191 µM | 26.3 µM | 
O=C(Nc1c(Cl)cc([N+](=O)[O-])cc1Cl)C(=O)C1C(=O)NC(=S)NC1=O | > 89.1 µM | > 89.1 µM | 
COc1ccc(-c2cc3c(nn2)-c2ccccc2C3=O)cc1 | > 100 µM | > 100 µM | 
CC(C)CCCC(C)[C@H]1CC[C@H]2[C@@H]3CC[C@H]4C[C@@H](CCC=C(c5cc(Cl)c(OC(=O)C(C)C)c(C(=O)O)c5)c5cc(Cl)c(OC(=O)C(C)C)c(C(=O)O)c5)CC[C@]4(C)[C@H]3CC[C@]12C (stereo not given in full) | 105 µM | 126 µM | 
CC(C)(C)c1cc(Cc2ccc([N+](C)(C)C)cc2)c(O)c(C(C)(C)C)c1 |  |  | inactive
O=C(Nc1cc(Cl)c(Cl)cc1Cl)C(=O)C(C(=O)c1ccc(Cl)c(Cl)c1)C1OC(=O)c2ccccc21 (stereo not given) | > 45.7 µM | 22.4 µM | 
O=C1/C(=C/c2ccc(O)c([N+](=O)[O-])c2)CCC/C1=C\c1ccc(O)c([N+](=O)[O-])c1 | > 200 µM | 11.7 µM | 
COc1ccc(-n2cnc3c(NC(C)(C)C(=O)O)ncnc32)cc1 | > 200 µM | 126 µM | 
CCOC(=O)c1cc2c3c(c(O)c(OC)c2s1)N(C(=O)c1cc2c4c(c(OC)c(OC)c2s1)N(C(=O)OC(C)(C)C(Cl)(Cl)Cl)CC4)CC3 |  |  | inactive
O=C(c1ccccc1)N1OC12CCCCC2 | > 200 µM | 51.3 µM | 
CC(=O)[O-].COc1cccc(/C=N\[N-]C(=O)c2ccncc2)c1.[Cu+2].[OH3+].[OH3+].c1cnc2c(c1)ccc1cccnc12 | > 200 µM | 61.7 µM | 
O=[As](O)(O)c1ccc(N=Nc2ccc(O)cc2)cc1 | > 200 µM | 138 µM | 

Compound | EC50 | IC50 | outcome
CC(C)CC(NC(=O)OC(C)(C)C)C(=O)NC(CCC(=O)OC1CCCCC1)C(N)=O (stereo not drawn) (Boc-Leu-Glu(OcHex)-NH2; configuration not given here) | > 200 µM | 126 µM | 
COc1cccc(NC(=S)/C(=C(/[O-])c2ccc(C)cc2)[n+]2ccccc2)c1 | > 200 µM | > 200 µM | 
CC(C)(Oc1ccc(C(=O)c2ccc(Cl)cc2)cc1Cl)C(=O)N1CCN(c2ccccc2)CC1 | > 20 µM | > 20 µM | 
CCOC(OCC)[C@H](N)[C@@H](O)[C@@H](O)[C@H]1COC(C)(C)O1 | > 200 µM | > 200 µM | 
Clc1ccc(C2ON=C(c3ccccc3)N2C23CC4CC(CC(C4)C2)C3)cc1 (stereo not given) | > 200 µM | > 200 µM | 
COC(=O)c1ccccc1C1CN=NC12Cc1cc(C)ccc1C2=O (stereo not given) | > 200 µM | > 200 µM | 
CC1(C)C(=NNC(=O)C[N+](C)(C)C)C(C)(C)C1=NNC(=O)C[N+](C)(C)C | > 28.8 µM | > 28.8 µM | 
COC(=O)C1CCC(=O)NCCCCC(NC(=O)OCc2ccccc2)C(=O)N1 (stereo not drawn) (Cbz-Lys-Glu-OMe; lactam 1-2; configuration not given here) | > 200 µM | > 200 µM | 
CC1CC(C)(C)OC(c2ccco2)O1 (stereo not given) | > 200 µM | > 200 µM | 
O=C1C(=Cc2ccccc2O)N=C(c2ccccc2)N1n1c(-c2ccccc2)nc2ccccc2c1=O | > 200 µM | 10.2 µM | 
COC(=O)Cc1cc(O)c(C/C=C(\C)CC/C=C(\C)C(O)C(=O)C=C(C)C)cc1O (stereo not given) | > 15.8 µM | 9.33 µM | 
Nc1ccc(S(=O)(=O)Nc2nccs2)cc1 | > 200 µM | > 200 µM | 
COc1ccc(C(O)C2c3c(cc4c(c3OC)OCO4)CCN2C)c(CO)c1OC (stereo not given) |  |  | inactive
Nc1ccc(C2=Nc3ccccc3SC(c3ccccc3O)C2)cc1 (stereo not given) | > 11 µM | > 11 µM | 
COc1ccccc1-c1cc(B(O)O)ccc1OC | > 200 µM | 40.7 µM | 
CN(NC(=O)/C(=C/C=C/c1ccccc1)NC(=O)c1ccccc1)c1cnn(-c2ccccc2)c(=O)c1Cl | > 200 µM | 3.24 µM | 
CC1(C)CCC[C@]2(C)c3occc3CCC12 (stereo not given in full) |  |  | inactive
CCN(CC)C(=O)c1cccc2c(OC)ccc(OC)c12 |  |  | inactive
COc1cc2c3cc1Oc1c(O)c(OC)cc4c1[C@H](Cc1ccc(cc1)Oc1cc(ccc1O)C[C@H]3N(C)CC2)N(C)CC4 |  |  | inactive
CCOc1ccccc1-c1nc2c(s1)C(=O)c1ccccc1C2=O | > 200 µM | 32.4 µM | 

Compound | EC50 | IC50 | outcome
CC(=O)OC1[C@@H](OC(C)=O)[C@H](OC(C)=O)C2(CO2)[C@H](OC(C)=O)[C@H]1OC(C)=O (stereo not given in full) | > 200 µM | 12.3 µM | 
CCN(CC)C(=S)SS(=O)(=O)c1cccc(N)c1 | > 200 µM | > 200 µM | 
N#C/C(=C\c1ccc(O)c(O)c1)C(=O)NCc1cccc(CNC(=O)/C(C#N)=C/c2ccc(O)c(O)c2)c1 | > 200 µM | 10.2 µM | 
Nc1ccc(S(=O)(=O)NC(=O)c2ccccc2)cc1 | > 200 µM | > 200 µM | 
Nc1nc(Cl)cc(NCC2(CO)CC(c3ccccc3)C2)n1 (stereo not given) | > 20 µM | 1.58 µM | 
O=S(=O)(c1ccccc1)[C@H]1[C@@H]2O[C@@H]2C[C@@H]1O | > 1050 µM | 55 µM | 
Cc1c(N(C)C)ccc2c(=O)c3cccc(CC(=O)O)c3oc12 | > 741 µM | 282 µM | 
Cc1ccccc1NC(=S)N/N=C(/c1ccccc1)c1ccccn1 | > 0.2 µM | 0.0676 µM | 
CS(=O)(=O)OCC1OS(=O)OC1COS(C)(=O)=O (stereo not given) | > 200 µM | 4.9 µM | 
Nc1nc2ncn(O)c2c(=O)[nH]1 | > 112 µM | 0.347 µM | 
COc1ccc2c(C(=O)O)cc3ccccc3c2c1OC |  |  | inactive
CN1C(c2ccccc2)(c2ccccc2)c2ccccc2S1(=O)=O | > 200 µM | 50.1 µM | 
CCc1cccc(C)c1NC(=O)C(=O)Cc1nc2ccccc2s1 |  |  | inactive
CCOP(=O)(CC(=O)c1ccccc1)OCC | > 977 µM | > 977 µM | 
CN(C(=O)c1cc2c(s1)sc1c(=O)n(C)c3ccccc3c12)c1ccccc1 | > 200 µM | 2.95 µM | 
O=C(C[C@H](NC(=O)OCc1ccccc1)C(=O)NC1Cc2ccccc2OC1=O)OCc1ccccc1 (stereo not given in full) | > 200 µM | 93.3 µM | 
CC(C)C(NCc1c(O)ccc2c(-c3ccccc3)cc(=O)oc12)C(=O)O (stereo not given) | > 200 µM | > 200 µM | 
c1csc(-c2cc(-c3cccs3)c(-c3cccs3)s2)c1 | > 200 µM | 38.9 µM | 
CSC(SC)=C(C#N)C(=O)Nc1ccc(Cl)cc1 | > 14.8 µM | 5.37 µM | 
Fc1ccc(C2=NOC3COC4C=CC=CC4OCC23)cc1 (stereo not given) | > 120 µM | > 120 µM | 
